{
  "source": "patent US4737487A",
  "about": "“VIP type peptides” (Beecham Group p.l.c., priority 1984, dated 1988)",
  "key": {"[1]": {"system": "spontaneous contractile responses of circular muscle from the proximal colon", "experiment": "Colonic motility in vitro: isolated circular muscle of rat proximal colon", "type": "cell-based", "conditions": "rat proximal colon circular muscle in Krebs solution, isolated tissue bath", "procedure": "Segments of circular muscle cut from the proximal colon of rats were mounted in Krebs solution in isolated tissue baths after the methods of Couture et al. (Couture R. et al. (1981), Can. J. Physiol. Pharmacol., 59, 957-964; and Couture R. et al., (1982), Pharmacol., 24, 230-242). The activity of the compound V was assessed from the effect on the spontaneous contractile responses generated by this tissue."}, "[2]": {"system": "spontaneous motility of proximal colon", "experiment": "Colonic motility in vivo: intraluminal pressure recording in anaesthetised rat", "conditions": "urethane-anaesthetised male Wistar rats; intravenous administration; 3 μmol/kg", "procedure": "Male albino rats, Wistar strain (Charles River UK) 300-500 g were anaesthetised with urethane. A segment of proximal colon was prepared for intraluminal pressure recording after the method of Maggi and Meli (Maggi, C. A. and Meli, A. (1982), J. Pharmacol. Methods 8, 39-46). The activity of the compound (V) was assessed from its action on the spontaneous motility of the preparation after intravenous administration."}, "[3]": {"system": "proximal duodenum acid disposal capacity", "experiment": "Acid disposal capacity of the rat proximal duodenum (anti-ulcer activity)", "type": "in vivo", "conditions": "significance P<0.05", "procedure": "Anti-ulcer activity may be related to the enhanced capacity to dispose of gastric acid. Acid disposal capacity may be enhanced by increased intestinal secretions and enhanced acid disposal capacity is believed to be useful in the treatment of peptic ulcer disease. Method for estimating the acid disposal capacity of the rat proximal duodenum Male Wistar rats, 180-250 g bodyweight, fasted overnight, are anaesthetized with urethane (150 mg/100 g bodyweight i.m.). The trachea is cannulated, and a gastric cannula, 0.5 cm i.d., 3 cm long, is inserted into the non-glandular forestomach via a mid-line abdominal incision. The intragastric cannula is exteriorized via a stab wound in the body wall. A triple lumen catheter, 0.3 cm o.d., is passed via the gastric cannula through the pylorus. The duodenum is ligated 1 cm below the pylorus, and the pylorus ligated around the cannula, thus creating a 1 cm proximal duodenal pouch excluding pancreatic and biliary secretions. The two ligatures enclosing the duodenal pouch are placed so as to avoid occluding the blood supply to the duodenal segment. Gastric secretions are allowed to drain freely from the gastric cannula. […] Outflow pH is recorded throughout the experiment. […] A group size of 6 animals or larger is used and the effect of compounds on the output pH compared to control data determined. […]"}},
  "note": "Where a SMILES comes first, the peptide text is derived from it. [ ]: non-standard residue; d: D form. Nle = CCCC[C@H](N)C(=O)O",
  "data": [
    {"smiles": "CCCC[C@H](NC(=O)[C@H](CCC(N)=O)NC(=O)[C@@H](N)CCCCN)C(=O)N[C@@H](C)C(=O)N[C@H](C(=O)N[C@@H](CCCCN)C(N)=O)C(C)C", "note": "[V, H-Lys-Gln-Nle-Ala-Val-Lys-NH2] (H-KQ[Nle]AVK-NH2)", "values": [
      {"measurement": "ED50, effect on spontaneous contractile responses", "setting": "[1]", "value": "10^-5 M"},
      {"measurement": "action on the spontaneous motility of the proximal colon preparation", "setting": "[2]", "value": "active"}
    ]},
    {"smiles": "CCCC[C@H](NC(=O)[C@H](CCC(N)=O)NC(=O)[C@@H](N)CCCCN)C(=O)N[C@@H](C)C(=O)N[C@@H](CC(C)C)C(=O)N[C@@H](CCCCN)C(N)=O", "note": "[Example 4, H-Lys-Gln-Nle-Ala-Leu-Lys-NH2.Acetate] (H-KQ[Nle]ALK-NH2)", "values": [
      {"measurement": "acid disposal (output pH compared to control)", "setting": "[3]; 30 nmol/kg/h i.v. infusion, input pH 2.5 on first pass", "value": "significant increase"},
      {"measurement": "acid disposal (output pH compared to control)", "setting": "[3]; 150 nmol/kg/h i.v. infusion, input pH 3 and 2.5 on first pass and input pH 2.5 on second pass", "value": "significant increase"}
    ]}
  ]
}
